The results in this text go back to patent US20120149662A1, “Heterocyclic Compounds as Janus Kinase Inhibitors” (BioCryst Pharmaceuticals, Inc., priority 2009, published 2012).

pIC50: −log10 of the molar value.

The target in the assay is JAK3 (JH1domain-catalytic) kinase and other members of the JAK family. Description: Test A: IC50 determination against JAK family kinases (Fabian et al. 2005 / Karaman et al. 2008 assay). The class given is binding. The following applies: 11 point dose response curves in triplicate; JAK family member not given; read-out: Activity (IC50) for JAK Family of Enzymes. On the procedure:
The ability of a compound of the invention to bind to JAK3 may be determined using pharmacological models which are well known to the art, or using Test A described below.
Inhibition constants (IC50s) were determined against JAK3 (JH1domain-catalytic) kinase and other members of the JAK family. Assays were performed as described in Fabian et al. (2005) Nature Biotechnology, vol. 23, p. 329 and in Karaman et al. (2008) Nature Biotechnology, vol. 26, p. 127 Inhibition constants were determined using 11 point dose response curves which were performed in triplicate. Table 1 shown below lists compounds of the invention and their respective IC50 values.
Turning to `c1cc2c(-c3cn[nH]c3)cnnc2[nH]1` [Compound 31m, 4-(1H-pyrazol-4-yl)-7H-pyrrolo[2,3-c]pyridazine], the pIC50 was under 5.00.
As to `CCOC(C)n1cc(-c2cnnc3[nH]ccc23)cn1` (stereo not drawn) [Compound 32c, 4-(1-(1-ethoxyethyl)-1H-pyrazol-4-yl)-7H-pyrrolo[2,3-c]pyridazine], the pIC50 is under 5.00.
For `N#CCC(C1CCCC1)n1cc(-c2cnnc3[nH]ccc23)cn1` (stereo not drawn) [Compound 34j, 3-(4-(7H-pyrrolo[2,3-c]pyridazin-4-yl)-1H-pyrazol-1-yl)-3-cyclopentylpropanenitrile] the value was over 5.30; for `CC(C)(C)C(=O)OCn1ccc2c(-c3cn[nH]c3)cnnc21` [Compound 43a, (4-(1H-pyrazol-4-yl)-7H-pyrrolo[2,3-c]pyridazin-7-yl)methyl pivalate], under 5.00.
For `N#CC[C@H](C1CCCC1)n1cc(-c2cnnc3[nH]ccc23)cn1` [Compound 43g, (R)-3-(4-(7H-pyrrolo[2,3-c]pyridazin-4-yl)-1H-pyrazol-1-yl)-3-cyclopentylpropanenitrile] the value was over 5.30; for `N#CC[C@@H](C1CCCC1)n1cc(-c2cnnc3[nH]ccc23)cn1` [Compound 44d, (S)-3-(4-(7H-pyrrolo[2,3-c]pyridazin-4-yl)-1H-pyrazol-1-yl)-3-cyclopentyl propanenitrile], over 5.30; for `CC(C)(C)OC(=O)N1CC(CC#N)(n2cc(-c3cnnc4[nH]ccc34)cn2)C1` [Compound 45d, tert-butyl 3-(4-(7H-pyrrolo[2,3-c]pyridazin-4-yl)-1H-pyrazol-1-yl)-3-(cyanomethyl)azetidine-1-carboxylate], under 5.00.
For `N#CCC1(n2cc(-c3cnnc4[nH]ccc34)cn2)COC1` [Compound 46c, 2-(3-(4-(7H-pyrrolo[2,3-c]pyridazin-4-yl)-1H-pyrazol-1-yl)oxetan-3-yl)acetonitrile] the value was over 5.00.
Take `N#CCC(C1CCCCC1)n1cc(-c2cnnc3[nH]ccc23)cn1` (stereo not drawn) [Compound 47d, 3-(4-(7H-pyrrolo[2,3-c]pyridazin-4-yl)-1H-pyrazol-1-yl)-3-cyclohexylpropane nitrile]: the pIC50 was over 5.30.
In the case of `N#CCC1(n2cc(-c3cnnc4[nH]ccc34)cn2)CCCC1` [Compound 48d, 2-(1-(4-(7H-pyrrolo[2,3-c]pyridazin-4-yl)-1H-pyrazol-1-yl)cyclopentyl)acetonitrile], the pIC50 is over 5.30.
Consider `CCS(=O)(=O)N1CC(CC#N)(n2cc(-c3cnnc4[nH]ccc34)cn2)C1` [Compound 49c, 2-(3-(4-(7H-pyrrolo[2,3-c]pyridazin-4-yl)-1H-pyrazol-1-yl)-1-(ethylsulfonyl)azetidin-3-yl)acetonitrile], for which the pIC50 was over 5.30.
For `c1ccc(-c2cnnc3[nH]ccc23)cc1` [Compound 50a, 4-phenyl-7H-pyrrolo[2,3-c]pyridazine] the value was under 5.00; for `N#CCC(CC1CCCC1)n1cc(-c2cnnc3[nH]ccc23)cn1` (stereo not drawn) [Compound 51e, 3-(4-(7H-pyrrolo[2,3-c]pyridazin-4-yl)-1H-pyrazol-1-yl)-4-cyclopentylbutane nitrile], over 5.30.
For `N#CCC(CC1CCCCC1)n1cc(-c2cnnc3[nH]ccc23)cn1` (stereo not drawn) [Compound 52e, 3-(4-(7H-pyrrolo[2,3-c]pyridazin-4-yl)-1H-pyrazol-1-yl)-4-cyclohexylbutane nitrile], the pIC50 is over 5.30.
The result for `N#CCC(C1CC1)n1cc(-c2cnnc3[nH]ccc23)cn1` (stereo not drawn) [Compound 53d, 3-(4-(7H-pyrrolo[2,3-c]pyridazin-4-yl)-1H-pyrazol-1-yl)-3-cyclopropylpropane nitrile] reads over 5.30; that for `N#CCC(C1CCC1)n1cc(-c2cnnc3[nH]ccc23)cn1` (stereo not drawn) [Compound 54e, 3-(4-(7H-pyrrolo[2,3-c]pyridazin-4-yl)-1H-pyrazol-1-yl)-3-cyclobutylpropane nitrile], over 5.30; that for `N#CCC1(n2cc(-c3cnnc4[nH]ccc34)cn2)CCC1` [Compound 55d, 2-(1-(4-(7H-pyrrolo[2,3-c]pyridazin-4-yl)-1H-pyrazol-1-yl)cyclobutyl)acetonitrile], over 5.30.
For `N#CCC1(n2cc(-c3cnnc4[nH]ccc34)cn2)CCCCC1` [Compound 56d, 2-(1-(4-(7H-pyrrolo[2,3-c]pyridazin-4-yl)-1H-pyrazol-1-yl)cyclohexyl)acetonitrile], the pIC50 was over 5.30.
The result for `N#CCC(CC1CC1)n1cc(-c2cnnc3[nH]ccc23)cn1` (stereo not drawn) [Compound 57e, 3-(4-(7H-pyrrolo[2,3-c]pyridazin-4-yl)-1H-pyrazol-1-yl)-4-cyclopropylbutane nitrile] reads over 5.30.
With `N#CC[C@H](C1CCCCC1)n1cc(-c2cnnc3[nH]ccc23)cn1` [Compound 58d, (R)-3-(4-(7H-pyrrolo[2,3-c]pyridazin-4-yl)-1H-pyrazol-1-yl)-3-cyclohexylpropanenitrile], the pIC50 was over 5.30.
For `N#CC[C@H](CC1CCCC1)n1cc(-c2cnnc3[nH]ccc23)cn1` [Compound 59d, (S)-3-(4-(7H-pyrrolo[2,3-c]pyridazin-4-yl)-1H-pyrazol-1-yl)-4-cyclopentylbutanenitrile] the value was over 5.30; for `N#CC[C@]1(n2cc(-c3cnnc4[nH]ccc34)cn2)C[C@@H](C#N)C1` [Compound 60f, (Z)-3-(4-(7H-pyrrolo[2,3-c]pyridazin-4-yl)-1H-pyrazol-1-yl)-3-(cyanomethyl)cyclobutanecarbonitrile], over 5.30; for `N#CC[C@]1(n2cc(-c3cnnc4[nH]ccc34)cn2)C[C@H](C#N)C1` [Compound 60g, (E)-3-(4-(7H-pyrrolo[2,3-c]pyridazin-4-yl)-1H-pyrazol-1-yl)-3-(cyanomethyl)cyclobutanecarbonitrile], over 5.30.
The result for `N#CCC[C@H](C1CCCC1)n1cc(-c2cnnc3[nH]ccc23)cn1` [Compound 62b, (R)-4-(4-(7H-pyrrolo[2,3-c]pyridazin-4-yl)-1H-pyrazol-1-yl)-4-cyclopentyl butanenitrile] reads over 5.30; that for `N#CC[C@H](c1ccccc1)n1cc(-c2cnnc3[nH]ccc23)cn1` [Compound 67d, (R)-3-(4-(7H-pyrrolo[2,3-c]pyridazin-4-yl)-1H-pyrazol-1-yl)-3-phenylpropane nitrile], over 5.30.
The result for `N#CC[C@H](c1cccc(O)c1)n1cc(-c2cnnc3[nH]ccc23)cn1` [Compound 68f, (R)-3-(4-(7H-pyrrolo[2,3-c]pyridazin-4-yl)-1H-pyrazol-1-yl)-3-(3-hydroxyphenyl)propanenitrile] reads over 5.30.
As for `NC(=O)c1c[nH]c2nnnc(O)c12` [Compound 70c, 4-hydroxy-7H-pyrrolo[2,3-d][1,2,3]triazine-5-carboxamide], the pIC50 was under 5.00.

In general, pIC50 refers to the negative decadic logarithm of the IC50, by convention in mol/L.
